Source: US20250288570A1, “TREATMENT OF NEUROLOGICAL DISORDERS” (Praxis Precision Medicines, Inc., priority 2022, published 2025)
Entries after “also recorded” stand apart in the source; their conditions may differ.

Key:
[1] = test system: psychomotor seizures induced by 6-Hz electrical stimulation in CD-1 mice; assay: 6-Hz psychomotor seizure model (32 and 44 mA); type: in vivo, mouse
From the text: The 6-Hz test is a validated model of focal seizures for evaluating the anti-seizure potential of compounds. The 6-Hz seizure model can be performed at different stimulation intensities (32 or 44 mA), with the higher intensity (44 mA) used as a model of pharmacoresistant seizures. The positive control valproate is an approved anti-seizure medicine (ASM).
This study evaluated the efficacy of Compound 1 in attenuating psychomotor seizures induced by 6-Hz electrical stimulation at two different stimulation intensities (32 and 44 mA) in wild-type CD-1 mice. Psychomotor seizures are defined as the expression of at least one of the following behaviors: stun/immobility, forelimb clonus, straub tail or lateral head movement within 30 seconds of the stimulus. Protection is defined as a complete absence of the above behaviors within 30 seconds of the stimulus. Doses of Compound 1 used were 1 mg/kg, 3 mg/kg and 6 mg/kg administered orally. Valproate (600 mg/kg, administered intraperitoneally) was used as a positive control.
Male CD-1 mice (Charles River Laboratories; St. Constant, Quebec, CAN) were used for the study. Body weights at the time the experiment was carried out were 30-40 grams. The mice were group-housed in polycarbonate cages according to standard operating procedures. Animals were maintained on a 12-hour light/12 hour dark cycle, with all experimental activities occurring during the light phase. Food and water were available ad libitum. Mice acclimated to the test facility for at least 72 hours prior to testing.
Treatment was conducted using Compound 1 and 35% 2-hydroxypropyl-β-cyclodextrin (35% HPBCD, used as a negative control). Compound 1 stock solution was prepared fresh each experiment day in 35% HPBCD. […] Valproate was prepared fresh each experiment day in a vehicle of saline and dosed at 10 mL/kg.
Mice were administered vehicle (35% HPBCD), a single dose of Compound 1 (1 mg/kg, 3 mg/kg or 6 mg/kg) or valproate (600 mg/kg). Vehicle and Compound 1 were administered via oral gavage 30 minutes prior to […]. Valproate was administered as an intraperitoneal injection 60 minutes prior to the electrical stimulus.
Immediately prior to conducting the 6-Hz seizure test, a brief neurological assessment was performed. Each animal was visually assessed and received a score from 0 to 3 according to the following scoring system: neurological score of 0 corresponds to a normal status; neurological score of 1 corresponds to a modest decrease in spontaneous activity; neurological score of 2 corresponds to a marked decrease in spontaneous activity; and neurological score of 3 corresponds to loss of righting reflex.
Corneal electrodes moistened with saline (ECT unit 57800; Ugo Basile) were used to deliver the electrical stimulus (6-Hz, 0.2 millisecond pulse width, 3 seconds duration). The current delivered was either 32 mA or 44 mA. Immediately after the electrical stimulus, each mouse was monitored continuously for 30 seconds by an observer blinded to the treatment group. […] Mice were scored for the presence or absence of each seizure behavior, with a maximum total score of 4. […] At the end of the 6-Hz seizure test, plasma and brain samples were collected.
Mice were anesthetized with isoflurane, whole blood was collected via cardiac puncture and brains were harvested. […] Plasma and brain samples were stored at −80° C. and analyzed to determine levels of Compound 1. […]

[2] = test system: multiple NaV isoforms and orthologs; assay: ATX-II induced persistent INa of multiple NaV isoforms and orthologs; type: cell-based

In the case of `CCOC(F)(F)c1nnc2ccc(-c3cnc(OCC(F)(F)F)c(F)c3)cn12` [Compound 1], the “seizure score (in words)” value ([1]; 6 mg/kg p.o., 32 and 44 mA) is reported as “significantly reduced the seizure score; also recorded: reduced seizure scores compared to vehicle”, the “incidence of seizures (in words)” value ([1]; 6 mg/kg p.o., 32 mA) is reported as “significantly reduced the incidence of seizures” and the neurological scores ([1]; any dose of Compound 1 (1, 3, 6 mg/kg)) is reported as “all neurological scores were zero; also recorded: normal”. The “inhibition of persistent INa at other isoforms and orthologs (in words)” value [2] was “inhibits ATX-II induced persistent INa expressed by multiple NaV isoforms and orthologs”.
